Assay [1] addresses human GABAA α1β3γ2 receptor (Homo sapiens (Human), UniProt P14867+P18507). As to the kind of experiment: Radioligand binding assay, [3H]Flumazenil competition, γ2-containing GABAA subtypes. The conditions noted are these: HEK293F membranes, [3H]Flumazenil 1 nM, mean of two determinations; read-out: Ki h-GABAA α1β3γ2. The method, then:
The affinity of compounds at GABAA γ2 subunit-containing receptors was measured by competition for [^3H]Flumazenil (81.1 Ci/mmol; Roche) binding to HEK293F cells expressing human (transiently transfected) receptors of composition α1β3γ2.
Harvested pellets from HEK293F cells expressing the different GABAA γ2 receptor subtypes were resuspended in Mannitol Buffer pH 7.2-7.4 and processed as described above for the cells expressing the GABAA γ1 subunit-containing receptors.
Assays were incubated to equilibrium for 1 hour at 4° C. and harvested onto GF/C uni-filters (Packard) by filtration using a Packard harvester and washing with ice-cold wash buffer (50 mM Tris; pH 7.5). After drying, filter-retained radioactivity was detected by liquid scintillation counting. Ki values were calculated using Exel-Fit (Microsoft) and are the means of two determinations.

For assay [2], the target named is human GABAA α5β2γ1 receptor (Homo sapiens (Human), UniProt P31644+Q8N1C3). As to the kind of experiment: Radioligand binding assay, [3H]RO7239181 competition, γ1-containing GABAA subtypes. Particulars: HEK293F membranes, mean of two determinations. The protocol: The affinity of compounds at GABAA γ1 subunit-containing receptors was measured by competition for [^3H]RO7239181 (67.3 Ci/mmol; Roche) binding to membranes from HEK293F cells (ThermoFisher R79007) expressing human (transiently transfected) receptors of composition α5β2γ1, α2β2γ1, α1β2γ1. For better protein expression of the α2 subunit-containing receptors, the 28 amino acid long signal peptide (Met1 to Ala28) of the human GABAA α2 subunit was substituted by the 31 amino acid long signal peptide (Met1 to Ser31) of human GABAA α5 subunit.
(§1) Harvested pellets from HEK293F cells expressing the different GABAA receptor subtypes were resuspended in Mannitol Buffer pH 7.2-7.4 (Mannitol 0.29M, Triethylamine 10 mM, Acetic acid 10 mM, EDTA 1 mM plus protease inhibitors (20 tablets Complete, Roche Diagnostics Cat. No. 05 056 489 001 per liter)), washed two times and then resuspended at 1:10 to 1:15 dilution in the same buffer. Cell disruption was performed by stirring the suspension in a Parr vessel #4637 at 435 psi for 15 minutes, and then the suspensions were centrifuged at 1000×g for 15 minutes at 4° C. (Beckman Avanti J-HC; rotor JS)-4.2). The supernatant (S1) was transferred in a 21 Schott flask and the pellet (P1) was resuspended with Mannitol Buffer up to 175 ml. The resuspended pellet was transferred into a 250 ml Corning centrifugal beaker and centrifuged at 1500×g for 10 minutes at 4° C. (Beckman Avanti J-HC; rotor JS)-4.2). The supernatant (S1) was then transferred in the 21 Schott flask and the pellet was discarded. The supernatants (S1) were centrifuged in 500 ml Beckman polypropylene centrifugal beaker at 15,000×g for 30 minutes at 4° C. (Beckman Avanti J-20 XP; rotor JLA-10.500). The pellet (P2) was resuspended with Mannitol Buffer 1:1 and frozen at −80° C. The supernatant (S2) was centrifuged in 100 ml Beckman polypropylene centrifugal tubes at 48000×g for 50 minutes at […] (Beckman Avanti J-20 XP; rotor JA-18). The supernatant (S3) was discarded and the pellet (P3) was resuspended with 1:1 Mannitol Buffer. The P2 and P3 protein concentration was determined with the BIORAD Standard assay method with bovine serum albumin as standard and measured on the NANO-Drop 1000. The membrane suspension was aliquots (500 μl per tube) and stored at −80° C. until required.
(§2) Membrane homogenates were resuspended and polytronised (Polytron PT1200E Kinematica AG) in Potassium Phosphate 10 mM, KCl 100 mM binding buffer at pH 7.4 to a final assay concentration determined with a previous experiment.
Radioligand binding assays were carried out in a volume of 200 µL (96-well plates) which contained 100 μL of cell membranes, [^3H]RO7239181 at a concentration of 1.5 nM (α5β2γ1) or 20-30 nM (α1β2γ1, 2β2γ1) and the test compound in the range of [0.3-10000]×10^−9 M. Nonspecific binding was defined by 10×10^−6 (α5β2γ1) and 30×10^−6 M RO7235136 and typically represented less than 5% (α5β2γ1) and less than 20% (α1β2γ1, α2β2γ1) of the total binding. Assays were incubated to equilibrium for 1 hour at 4° C. and then, membranes were filtered onto unifilter (96-well white microplate with bonded GF/C filters preincubated 20-50 minutes in 0.3% Polyethylenimine) with a Filtermate 196 harvester (Packard BioScience) and washed 4 times with cold Potassium Phosphate 10 mM pH 7.4, KCl 100 mM binding buffer. After drying, filter-retained radioactivity was detected by liquid scintillation counting. K, values were calculated using Excel-Fit (Microsoft) and are the means of two determinations.
Representative test results, obtained by the above described assay measuring binding affinity to HEK293 cells expressing human (h) receptors, are shown in the Table 1.

For assay [3], the target named is human GABAA α1β2γ1 receptor (Homo sapiens (Human), UniProt P14867+Q8N1C3). The assay is described as above. The conditions noted are these: HEK293F membranes, [3H]RO7239181 20-30 nM, mean of two determinations. The protocol: (§3) The affinity of compounds at GABAA γ1 subunit-containing receptors was measured by competition for [^3H]RO7239181 (67.3 Ci/mmol; Roche) binding to membranes from HEK293F cells (ThermoFisher R79007) expressing human (transiently transfected) receptors of composition α5β2γ1, α2β2γ1, α1β2γ1.
as §1, §2
(§4) Assays were incubated to equilibrium for 1 hour at 4° C. and then, membranes were filtered onto unifilter (96-well white microplate with bonded GF/C filters preincubated 20-50 minutes in 0.3% Polyethylenimine) with a Filtermate 196 harvester (Packard BioScience) and washed 4 times with cold Potassium Phosphate 10 mM pH 7.4, KCl 100 mM binding buffer. After drying, filter-retained radioactivity was detected by liquid scintillation counting. K, values were calculated using Excel-Fit (Microsoft) and are the means of two determinations.

The target in assay [4] is human GABAA α2β2γ1 receptor (Homo sapiens (Human), UniProt P47869+Q8N1C3). Described as above. The conditions noted are these: for Ki: HEK293F membranes, [3H]RO7239181 20-30 nM, mean of two determinations, read-out: Ki h-GABAA α2β2γ1; for γ2/γ1 Selectivity Ratio: Ki α1β3γ2 (nM)/Ki α2β2γ1 (nM); for LogSel: Log[Ki α1β3γ2 (nM)/Ki α2β2γ1 (nM)]. The protocol:
as §3, §1, §2, §4

Structures are written as SMILES. Where “and” joins values, the source holds several entries; their conditions need not be identical. Equal entries are not always repeated.

Regarding `C[C@@H]1N=C(c2ccccc2F)c2c(ccc(Br)c2Cl)-n2cnnc21` [Example 30, (4S)-8-bromo-7-chloro-6-(2-fluorophenyl)-4-methyl-4H-[1,2,4]triazolo[4,3-a][1,4]benzodiazepine], the Ki amounted to 0.582 µM in assay [1], 0.0026 µM in assay [2], 0.065 µM in assay [3] and 0.0436 µM in assay [4]. Moreover, the “γ2/γ1 Selectivity Ratio” value in assay [4] was 13.3. Moreover, the LogSel in assay [4] was 1.13 and 1.1.

Take `OC1N=C(c2c(F)cccc2F)c2c(ccc(Br)c2Cl)-n2cnnc21` (centres unmarked) [Example 31, 8-bromo-7-chloro-6-(2,6-difluorophenyl)-4H-[1,2,4]triazolo[4,3-a][1,4]benzodiazepin-4-ol]: the Ki in assay [1] was determined as 0.707 µM; in assay [2] it was 0.0028 µM; in assay [3], 0.0397 µM; in assay [4], 0.041 µM. Moreover, the “γ2/γ1 Selectivity Ratio” value in assay [4] is listed as 17.3. This molecule also displayed a LogSel in assay [4] of 1.24.

For the molecule `C[C@@H]1N=C(c2ccccc2F)c2c(ccc(Br)c2Cl)-n2c(-c3cccnn3)nnc21` [Example 32, (4S)-8-bromo-7-chloro-6-(2-fluorophenyl)-4-methyl-1-pyridazin-3-yl-4H-[1,2,4]triazolo[4,3-a][1,4]benzodiazepine], the Ki in assay [1] was 1.03 µM; in assay [2], 0.0013 µM; in assay [3] it was 0.0333 µM; in assay [4], 0.0105 µM. In assay [4], the “γ2/γ1 Selectivity Ratio” value is given as 98.2. The same molecule registered a LogSel in assay [4] of 1.99.

As for `OC1N=C(c2ccccc2F)c2c(ccc(Br)c2Cl)-n2c(-c3cccnn3)nnc21` (centres unmarked) [Example 35, 8-bromo-7-chloro-6-(2-fluorophenyl)-1-pyridazin-3-yl-4H-[1,2,4]triazolo[4,3-a][1,4]benzodiazepin-4-ol], the Ki in assay [1] came to 2.8 µM; in assay [2] it was 0.0084 µM; in assay [3], 0.64 µM; in assay [4], 0.0786 µM. In assay [4], the “γ2/γ1 Selectivity Ratio” value was determined as 35.7. In assay [4], the LogSel is on record as 1.55.

In the case of `C[C@@H]1N=C(c2c(F)cccc2F)c2c(ccc(Br)c2Cl)-n2cnnc21` [Example 51, (4S)-8-bromo-7-chloro-6-(2,6-difluorophenyl)-4-methyl-4H-[1,2,4]triazolo[4,3-a][1,4]benzodiazepine], the Ki was determined as 0.393 µM in assay [1], 0.0008 µM in assay [2], 0.009 µM in assay [3] and 0.0049 µM in assay [4]. Besides, the “γ2/γ1 Selectivity Ratio” value in assay [4] was 79.5 and 80. Further, the LogSel in assay [4] is given as 1.9.

In the case of `C[C@@H]1N=C(c2c(F)cccc2F)c2c(ccc(Cl)c2Cl)-n2c(-c3ccncn3)nnc21` [Example 52, (4S)-7,8-dichloro-6-(2,6-difluorophenyl)-4-methyl-1-pyrimidin-4-yl-4H-[1,2,4]triazolo[4,3-a][1,4]benzodiazepine], the Ki in assay [1] is 0.638 µM; in assay [2] it was 0.0011 µM; in assay [3], 0.0102 µM; in assay [4] it was 0.0057 µM. Further, the “γ2/γ1 Selectivity Ratio” value in assay [4] worked out at 112.4. In assay [4], the LogSel was determined as 2.05.

With `C[C@@H]1N=C(c2c(F)cccc2F)c2c(ccc(Cl)c2Cl)-n2c(-c3cnn(C)c3)nnc21` [Example 53, (4S)-7,8-dichloro-6-(2,6-difluorophenyl)-4-methyl-1-(1-methylpyrazol-4-yl)-4H-[1,2,4]triazolo[4,3-a][1,4]benzodiazepine], the Ki in assay [1] came out at 0.246 µM; in assay [2], 0.0011 µM; in assay [3], 0.0144 µM; in assay [4], 0.003 µM. The “γ2/γ1 Selectivity Ratio” value in assay [4] stood at 82.0. In assay [4], the LogSel is given as 1.91.

For the molecule `COC[C@@H]1N=C(c2c(F)cccc2F)c2c(ccc(C(F)(F)F)c2Cl)-n2c(C)nnc21` [Example 105, (4R)-7-chloro-6-(2,6-difluorophenyl)-4-(methoxymethyl)-1-methyl-8-(trifluoromethyl)-4H-[1,2,4]triazolo[4,3-a][1,4]benzodiazepine], the Ki in assay [1] came out at 7.34 µM. The molecule also came in with a Ki in assay [2] of 0.0201 µM. In addition, in assay [4], the Ki stood at 0.0993 µM, the “γ2/γ1 Selectivity Ratio” value stood at 73.9 and the LogSel is recorded as 1.87.

On to `Cc1nnc2n1-c1ccc(C(F)(F)F)c(Cl)c1C(c1c(F)cccc1F)=N[C@H]2CO` [Example 106, [(4R)-7-chloro-6-(2,6-difluorophenyl)-1-methyl-8-(trifluoromethyl)-4H-[1,2,4]triazlo[4,3-a][1,4]benzodiazepin-4-yl]methanol], for which the Ki in assay [1] was determined as 7.64 µM. This molecule gave a Ki in assay [2] of 0.0043 µM. In assay [4], the Ki was determined as 0.0713 µM, the “γ2/γ1 Selectivity Ratio” value is reported as 107.1 and the LogSel is reported as 2.03.

For `C[C@@H]1N=C(c2c(F)cccc2F)c2c(ccc(C(F)(F)F)c2Cl)-n2cnnc21` [Example 107, (4S)-7-chloro-6-(2,6-difluorophenyl)-4-methyl-8-(trifluoromethyl)-4H-[1,2,4]triazolo[4,3-a][1,4]benzodiazepine], the Ki in assay [1] was 3.53 µM. The inhibitory constant (Ki) in assay [2] amounted to 0.003 µM. For the same molecule, in assay [4], the Ki was found to be 0.0683 µM, the “γ2/γ1 Selectivity Ratio” value was 51.8 and the LogSel was determined as 1.71.

With `CCc1ccc2c(c1Cl)C(c1c(F)cccc1F)=N[C@@H](C)c1nnc(C)n1-2` [Example 109, (4S)-7-chloro-6-(2,6-difluorophenyl)-8-ethyl-1,4-dimethyl-4H-[1,2,4]triazolo[4,3-a][1,4]benzodiazepine], the figures for the Ki in assay [1], in assay [2] and in assay [4] were 0.754 µM, 0.0037 µM and 0.0658 µM, respectively. For the same molecule, in assay [4], the “γ2/γ1 Selectivity Ratio” value amounted to 11.5. Also, in assay [4], the LogSel is given as 1.06.
